Assay results taken from paper PMC9496042 (2022).

Experiments:
[1] = system: Apt-14t (DNA, aptamer) ACGGCCAGTGGGTGGGGCGGGTGGCGGCCGGTTGTTTCTATGC; experiment: graphene oxide fluorescence recovery (FAM); conditions: 100 mM NaCl, 5 mM KCl, 2 mM MgCl2, 1 mM CaCl2; for binding: binding buffer pH 7.6, 100 nM aptamer, 1 µM compound
[2] = system: Apt-14t (AuNP assay) (DNA, aptamer) ACGGCCAGTGGGTGGGGCGGGTGGCGGCCGGTTGTTTCTATGC; experiment: AuNP colorimetry (A650/A520); conditions: 100 mM NaCl, 5 mM KCl, 2 mM MgCl2, 1 mM CaCl2; binding buffer pH 7.6, 37 °C; 200 nM aptamer; NaCl added after binding to aggregate AuNPs
[3] = system: Apt-1 (DNA, aptamer) GCTGTGTGACTCCTGCAAGGTCCTCGGGTGGTGGGTGGGCTCGGGTTTTTGTTCACTCTCCGCAGCTGTATCTTGTCTCC; experiment: graphene oxide fluorescence recovery (FAM); conditions: 100 mM NaCl, 5 mM KCl, 2 mM MgCl2, 1 mM CaCl2; 20 mM Tris-HCl pH 7.6 (binding buffer); aptamer titrated at fixed FF (1 M [sic])
[4] = system: Apt-20 (DNA, aptamer) GCTGTGTGACTCCTGCAAGCGCAATGATGTGTTGTGGGTGGGCGGGTGGCTCATTGCGTGGGCAGCTGTATCTTGTCTCC; experiment: graphene oxide fluorescence recovery (FAM); conditions: 100 mM NaCl, 5 mM KCl, 2 mM MgCl2, 1 mM CaCl2; 20 mM Tris-HCl pH 7.6 (binding buffer); aptamer titrated at fixed FF (1 M [sic])
[5] = system: Apt-15 (DNA, aptamer) GCTGTGTGACTCCTGCAACACGAACGTTTCCGTGGGTGGGTGGGTGGCCAAATGTCGCGTGGCAGCTGTATCTTGTCTCC; experiment: graphene oxide fluorescence recovery (FAM); conditions: 100 mM NaCl, 5 mM KCl, 2 mM MgCl2, 1 mM CaCl2; 20 mM Tris-HCl pH 7.6 (binding buffer); aptamer titrated at fixed FF (1 M [sic])
[6] = system: Apt-14 (DNA, aptamer) GCTGTGTGACTCCTGCAAACGGCCAGTGGGTGGGGCGGGTGGCGGCCGGTTGTTTCTATGCGCAGCTGTATCTTGTCTCC; experiment: graphene oxide fluorescence recovery (FAM); conditions: 100 mM NaCl, 5 mM KCl, 2 mM MgCl2, 1 mM CaCl2; 20 mM Tris-HCl pH 7.6 (binding buffer); aptamer titrated at fixed FF (1 M [sic]); GO:ssDNA 20:1

Compound: O=C(N[C@H](CO)[C@H](O)c1ccc([N+](=O)[O-])cc1)C(Cl)Cl
- binding [1]: weak

Compound: CS(=O)(=O)c1ccc([C@@H](O)[C@H](N)CF)cc1
- binding [1]: yes
- binding [2]: yes

Compound: CS(=O)(=O)c1ccc([C@@H](O)[C@@H](CF)NC(=O)C(Cl)Cl)cc1
- Kd [3]: 70.90 ± 22.36 nM
- Kd ([1]; 20 mM Tris-HCl pH 7.6 (binding buffer), aptamer titrated 0-200 nM at fixed FF (1 M [sic])): 4.66 ± 0.75 nM
- Kd [4]: 59.44 ± 16.9 nM
- binding [2]: yes
- Kd [5]: 57.41 ± 18.0 nM
- Kd [6]: 34.65 ± 5.7 nM

Compound: CS(=O)(=O)c1ccc([C@@H](O)[C@@H](CO)NC(=O)C(Cl)Cl)cc1
- binding [1]: weak
